In this assay the target is T1, Human CD73 (Homo sapiens, UniProt P21589).
T1 construct: purchased R&D Systems; host or cells: CHO cells
T1 sequence (P21589 27-549): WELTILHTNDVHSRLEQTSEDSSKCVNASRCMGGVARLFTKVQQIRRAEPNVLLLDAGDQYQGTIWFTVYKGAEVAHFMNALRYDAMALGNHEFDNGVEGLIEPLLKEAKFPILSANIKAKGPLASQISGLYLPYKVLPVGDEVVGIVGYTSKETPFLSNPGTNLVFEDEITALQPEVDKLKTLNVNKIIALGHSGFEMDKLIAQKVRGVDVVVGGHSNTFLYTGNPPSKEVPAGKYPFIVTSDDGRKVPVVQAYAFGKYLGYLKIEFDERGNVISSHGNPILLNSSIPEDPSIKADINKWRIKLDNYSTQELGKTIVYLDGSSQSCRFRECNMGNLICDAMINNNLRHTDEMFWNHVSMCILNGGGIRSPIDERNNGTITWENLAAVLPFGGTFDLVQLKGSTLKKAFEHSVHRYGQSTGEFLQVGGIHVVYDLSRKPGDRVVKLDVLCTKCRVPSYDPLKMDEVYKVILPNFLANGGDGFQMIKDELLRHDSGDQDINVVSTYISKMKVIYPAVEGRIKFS
Briefly: CD73 Enzyme Assay. The class given is biochemical. The note with it: read-out: CD73 Enzyme Assay IC50.

Where [1] appears, read: 0.25 nM hCD73, 25 μM AMP, kinetic read at 360 nm.

This note sets out measurements from patent publication US11591355B2 (Peloton Therapeutics, Inc., priority 2017, dated 2023).

Where two headings read alike, the source gives them in different places. Where only a bound is given, the exact number is not on record here.

On to `O=P(O)(O)COC[C@H]1O[C@@H](n2cnc3c(NCc4ccncc4)ncnc32)[C@H](O)[C@@H]1O` [Compound 28, [(2R,3S,4R,5R)-3,4-dihydroxy-5-[6-(4-pyridylmethylamino)-purin-9-yl]tetrahydro-furan-2-yl]methoxy-methylphosphonic acid], for which, under setting [1], the IC50 (commonly the concentration at which inhibition is half-maximal) is greater than 1 µM.

As to `CCNc1ncnc2c1ncn2[C@@H]1O[C@H](COCP(=O)(O)O)[C@@H](O)[C@H]1O` [Compound 17, [(2R,3S,4R,5R)-5-[6-(ethylamino)purin-9-yl]-3,4-dihydroxy-tetrahydrofuran-2-yl]-methoxymethylphos-phonic acid], the concentration for half-maximal inhibition (IC50) under setting [1] was greater than 1 µM.

In the case of `O=C(OCOP(=O)(COC[C@H]1O[C@@H](n2ccc3c(NC4CCCC4)nc(Cl)nc32)[C@H](O)[C@@H]1O)OCOC(=O)N1CCOCC1)N1CCOCC1` [Compound 238, [[(2R,3S,4R,5R)-5-[2-chloro-4-(cyclopentyl-amino)pyrrolo[2,3-d]-pyrimidin-7-yl]-3,4-dihydroxy-tetrahydro-furan-2-yl]methoxy-methyl-(morpholine-4-carbonyloxymeth-oxy)phosphoryl]oxy-methyl morpholine-4-carboxylate], the IC50 under setting [1] is 0.1 to 1 µM.

On to `CN(C)CCOc1nc(NC2CCCC2)c2ccn([C@@H]3O[C@H](COCP(=O)(O)O)[C@@H](O)[C@H]3O)c2n1` [Compound 259, [(2R,3S,4R,5R)-5-[4-(cyclopentylamino)-2-[2-(dimethylamino)-ethoxy]pyrrolo[2,3-d]-pyrimidin-7-yl]-3,4-dihydroxy-tetrahydro-furan-2-yl]methoxy-methylphosphonic acid], for which, under setting [1], the IC50 lay in the range of 0.1 to 1 µM.

As to `NS(=O)(=O)c1ccc(CNc2ncnc3c2ncn3[C@@H]2O[C@H](COCP(=O)(O)O)[C@@H](O)[C@H]2O)cc1` [Compound 59], the IC50 is greater than 1 µM.

As to `O=P(O)(O)COC[C@H]1O[C@@H](n2ccc3c(NC4CNC4)nc(Cl)nc32)[C@H](O)[C@@H]1O` [Compound 245, [(2R,3S,4R,5R)-5-[4-(azetidin-3-ylamino)-2-chloro-pyrrolo[2,3-d]pyrimidin-7-yl]-3,4-dihydroxy-tetrahydro-furan-2-yl]methoxy-methylphosphonic acid], the concentration for half-maximal inhibition (IC50) under setting [1] is 0.1 to 1 µM.

For the compound `NC(=O)c1cccc(CNc2ncnc3c2ncn3[C@@H]2O[C@H](COCP(=O)(O)O)[C@@H](O)[C@H]2O)c1` [Compound 65, [(2R,3S,4R,5R)-5-[6-[(3-carbamoylphenyl)-methylamino]purin-9-yl]-3,4-dihydroxy-tetrahydrofuran-2-yl]-methoxymethylphos-phonic acid], the IC50 under setting [1] was greater than 1 µM.

`O=P(O)(O)COC[C@H]1O[C@@H](n2cnc3c(NCCc4ccccc4)ncnc32)[C@H](O)[C@@H]1O` [Compound 29, [(2R,3S,4R,5R)-3,4-dihydroxy-5-[6-(2-phenylethylamino)-purin-9-yl]tetrahydro-furan-2-yl]methoxy-methylphosphonic acid]: the IC50 under setting [1] lay in the range of 0.1 to 1 µM.

`CNc1ncnc2c1ncn2[C@@H]1O[C@H](COCP(=O)(O)O)[C@@H](O)[C@H]1O` [Compound 11, [(2R,3S,4R,5R)-3,4-dihydroxy-5-[6-(methylamino)purin-9-yl]tetrahydrofuran-2-yl]methoxymethyl-phosphonic acid]: under setting [1], the IC50 was greater than 1 µM.

As for `CN(C)C(=O)COP(=O)(O)COC[C@H]1O[C@@H](n2ccc3c(NC4CCCC4)nc(Cl)nc32)[C@H](O)[C@@H]1O` [Compound 234, [(2R,3S,4R,5R)-5-[2-chloro-4-(cyclopentyl-amino)pyrrolo[2,3-d]-pyrimidin-7-yl]-3,4-dihydroxy-tetrahydro-furan-2-yl]methoxy-methyl-[2-(dimethyl-amino)-2-oxo-ethoxy]-phosphinic acid], under setting [1], the IC50 lay in the range of 0.1 to 1 µM.

Turning to `O=P(O)(O)COC[C@H]1O[C@@H](n2cnc3c(O)ncnc32)[C@H](O)[C@@H]1O` [Compound 48], the IC50 under setting [1] was greater than 1 µM.

As for `C[C@@H](Nc1nc(Cl)nc2c1ncn2[C@@H]1O[C@H](COCP(=O)(O)O)[C@@H](O)[C@@]1(C)O)c1ccccc1` [Compound 216, [(2R,3R,4R,5R)-5-[2-chloro-6-[[(1R)-1-phenylethyl]amino]-purin-9-yl]-3,4-dihydroxy-4-methyl-tetrahydrofuran-2-yl]methoxymethyl-phosphonic acid], under setting [1], the IC50 was greater than 1 µM.

With `CCOC(=O)[C@H](C)NP(=O)(COC[C@H]1O[C@@H](n2ccc3c(NC4CCCC4)nc(Cl)nc32)[C@H](O)[C@@H]1O)N[C@@H](C)C(=O)OCC` [Compound 220, ethyl (2S)-2-[[[(2R,3S,4R,5R)-5-[2-chloro-4-(cyclo-pentylamino)pyrrolo-[2,3-d]pyrimidin-7-yl]-3,4-dihydroxy-tetra-hydrofuran-2-yl]-methoxymethyl-[[(1S)-2-ethoxy-1-methyl-2-oxo-ethyl]amino]-phosphoryl]amino]-propanoate], under setting [1], the IC50 is greater than 1 µM.

As for `O=P(O)(O)COC[C@H]1O[C@@H](n2ccc3c(N[C@@H]4CCNC4)nc(Cl)nc32)[C@H](O)[C@@H]1O` [Compound 241, [(2R,3S,4R,5R)-5-[2-chloro-4-[[(3R)-pyrrolidin-3-yl]amino]-pyrrolo[2,3-d]pyrimidin-7-yl]-3,4-dihydroxy-tetrahydrofuran-2-yl]-methoxymethylphos-phonic acid], the 50% inhibitory concentration (IC50) under setting [1] lay within 0.1 to 1 µM.

Regarding `CC(C)Oc1ncnc2c1ncn2[C@@H]1O[C@H](COCP(=O)(O)O)[C@@H](O)[C@H]1O` [Compound 44, [(2R,3S,4R,5R)-3,4-dihydroxy-5-(6-isopropoxypurin-9-yl)tetrahydrofuran-2-yl]methoxymethylphosphonic acid], the IC50 under setting [1] is greater than 1 µM.

`O=P(O)(O)COC[C@H]1O[C@@H](n2cnc3c(NCc4ccccc4)nc(-c4ccccc4)nc32)[C@H](O)[C@@H]1O` [Compound 8, [(2R,3S,4R,5R)-5-[6-(benzylamino)-2-phenyl-purin-9-yl]-3,4-dihydroxy-tetrahydrofuran-2-yl]methoxymethylphosphonic acid]: under setting [1], the IC50 lay within 0.1 to 1 µM.

On to `O=P(O)(O)COC[C@H]1O[C@@H](n2cnc3c(NCCO)ncnc32)[C@H](O)[C@@H]1O` [Compound 13, [(2R,3S,4R,5R)-3,4-dihydroxy-5-[6-(2-hydroxyethylamino)-purin-9-yl]tetrahydro-furan-2-yl]methoxy-methylphosphonic acid], for which the IC50 under setting [1] is greater than 1 µM.

Regarding `CCCCCCCCCCCCCCCCOCCCOP(=O)(O)COC[C@H]1O[C@@H](n2ccc3c(NC4CCCC4)nc(Cl)nc32)[C@H](O)[C@@H]1O` [Compound 246, [(2R,3S,4R,5R)-5-[2-chloro-4-(cyclopentyl-amino)pyrrolo[2,3-d]-pyrimidin-7-yl]-3,4-dihydroxy-tetrahydro-furan-2-yl]methoxy-methyl-(3-hexadecoxy-propoxy)phosphinic acid], under setting [1], the IC50 was greater than 1 µM.

In the case of `O=P(O)(O)COC[C@H]1O[C@@H](n2cnc3c(Nc4ccccc4)ncnc32)[C@H](O)[C@@H]1O` [Compound 30, [(2R,3S,4R,5R)-5-(6-anilinopurin-9-yl)-3,4-dihydroxy-tetrahydro-furan-2-yl]methoxy-methylphosphonic acid], the IC50 under setting [1] was greater than 1 µM.

`CC(C)Nc1nc(Cl)nc2c1ncn2[C@@H]1O[C@H](COCP(=O)(O)O)[C@H]2OC(C)(C)O[C@H]21` [Compound 14, [(3aR,4R,6R,6aR)-4-[2-chloro-6-(isopropyl-amino)purin-9-yl]-2,2-dimethyl-3a,4,6,6a-tetrahydrofuro[3,4-d] [1,3]dioxol-6-yl]-methoxymethylphos-phonic acid]: under setting [1], the IC50 is greater than 1 µM.

Take `C[C@H](Nc1ncnc2c1ncn2[C@@H]1O[C@H](COCP(=O)(O)O)[C@@H](O)[C@H]1O)c1cccc(F)c1` [Compound 50, [(2R,3S,4R,5R)-5-[6-[[(1S)-1-(3-fluoro-phenyl)ethyl]amino]-purin-9-yl]-3,4-dihydroxy-tetrahydro-furan-2-yl]methoxy-methylphosphonic acid]: the IC50 under setting [1] lay within 0.1 to 1 µM.

With `O=P(O)(O)COC[C@H]1O[C@@H](n2cnc3c(NC4CC4)ncnc32)[C@H](O)[C@@H]1O` [Compound 24, [(2R,3S,4R,5R)-5-[6-(cyclopropylamino)-purin-9-yl]-3,4-dihydroxy-tetrahydro-furan-2-yl]methoxy-methylphosphonic acid], the IC50 under setting [1] is greater than 1 µM.

Turning to `N#Cc1nc(NC2CCCC2)c2c(C#N)cn([C@@H]3O[C@H](COCP(=O)(O)O)[C@@H](O)[C@H]3O)c2n1` [Compound 210, [(2R,3S,4R,5R)-5-[2,5-dicyano-4-(cyclopentyl-amino)pyrrolo[2,3-d]-pyrimidin-7-yl]-3,4-dihydroxy-tetrahydro-furan-2-yl]methoxy-methylphosphonic acid], the IC50 under setting [1] is 0.1 to 1 µM.
